Data: paper PMC13267113 (npj Drug Discovery, 2025)

Tests used:
[1] = Metabolic stability in mouse liver microsomes; assay type: in vitro ADME; settings: pooled mouse liver microsomes, 0.5 mg/mL microsomes, NADPH
Method: The metabolic stability of testosterone, verapamil and ketoconazole was determined in parallel to confirm the enzymatic activity of mouse liver microsomes. For combination experiments, cobicistat was added to the incubation mixture together with test compounds. […] Concentration of the remaining test compound at the different time points was analyzed by HPLC-MS/MS (Vanquish Flex coupled to a TSQ Altis Plus, Thermo Fisher, Dreieich, Germany) and used to determine half-life (t1/2).

[2] = biological target: T1, scavenger receptor class B member 1 (SCARB1) (Homo sapiens, UniProt Q8WTV0); experiment: Affinity-based protein profiling (AfBPP), SCARB1; assay type: binding; settings: 12.5 µM pre-treatment before Cysto-354 (2.5 µM), HepG2, n = 4
T1 construct: endogenous in cells; host or cells: HepG2
T1 sequence (Q8WTV0 1-509 isoform Q8WTV0-2): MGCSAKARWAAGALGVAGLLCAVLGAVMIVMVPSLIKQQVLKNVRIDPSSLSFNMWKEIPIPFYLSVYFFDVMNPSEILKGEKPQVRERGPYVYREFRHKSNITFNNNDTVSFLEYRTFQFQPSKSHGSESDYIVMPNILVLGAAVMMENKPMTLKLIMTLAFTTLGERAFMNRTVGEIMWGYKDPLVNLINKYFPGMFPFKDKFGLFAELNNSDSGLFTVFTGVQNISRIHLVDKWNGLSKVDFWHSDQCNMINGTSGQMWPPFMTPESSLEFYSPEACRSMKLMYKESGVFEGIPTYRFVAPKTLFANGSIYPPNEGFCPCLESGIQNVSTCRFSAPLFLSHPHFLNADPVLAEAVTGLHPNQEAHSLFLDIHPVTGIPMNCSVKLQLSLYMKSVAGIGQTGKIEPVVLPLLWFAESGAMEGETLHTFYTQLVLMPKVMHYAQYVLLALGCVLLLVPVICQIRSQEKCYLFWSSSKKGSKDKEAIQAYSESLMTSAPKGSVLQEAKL
Method: Cells were seeded in 100 mm cell-bind petri dishes with a concentration of 2.8 × 10^6 cells per sample and incubated (37 °C, 5% CO2) for 3 days to reach ~80% confluence. Cells were washed with warm PBS prior to compound addition. Compound solutions as well as the DMSO control were generally added as freshly prepared solutions in pre-warmed, serum-free culture medium. Affinity-based proteome profiling was performed by treating the respective cell line with Cysto-354 (2.5 µM) for 3 h. For competition samples, cells were treated with CN-861-2 (12.5 µM) for 1 h, prior to addition of photo-probe Cysto-354 (2.5 µM) for 3 h incubation time. Control samples were treated with DMSO. Afterwards, cells were UV-irradiated for 10 min on ice, scraped off and transferred to Eppendorf tubes for washing with 1 mL cold PBS (centrifuge 5 min, 500g, 4 °C). The cell pellet was stored at −80 °C until lysis. Further sample preparation was done as previously described. […]
Peptides were measured and online-separated using an UltiMate 3000 nano HPLC system (Dionex) coupled to a Bruker timsTOF Pro mass spectrometer via a CaptiveSpray nano-electrospray ion source and Sonation column oven. […]
MS raw data was analyzed using MaxQuant software (version 2.0.3.0) and peptides were searched against Uniprot database for Homo sapiens (taxon identifier: 9606, downloaded on 11.03.2022, canonical, reviewed). […]

For CO[C@H](C(N)=O)[C@H](NC(=O)c1ccc(NC(=O)c2ccc(C#N)cc2)cc1)C(=O)Nc1ccc(C(=O)Nc2ccc(C(=O)Nc3ccc(C(=O)O)cc3)c(O)c2OC(C)C)cc1 [CN-861-2], the microsomal CLint at 1 μM ([1]; read-out: MLM Clint) was under 11.6 µL/min/mg, the half-life at 1 µM ([1]; read-out: MLM t1/2) was over 2 h and the “competition of SCARB1 enrichment” value [2] was “significant competition”.
